# Source: US5955349A, “Compositions and methods for producing heterologous polypeptides in Pichia methanolica” (ZymoGenetics, Inc., priority 1996, dated 1999)
# System: P. methanolica cells (strain CBS6515, UV-mutagenized)
# Test: Nystatin enrichment for auxotrophic mutants; titering of colony forming units versus control cells
# Conditions: 1 mg nystatin added to remainder (about 450 ml) of 500 ml culture in minimal broth with 5 g/L ammonium sulfate, one additional hour with shaking, versus untreated control cells
# Procedure: Large-scale mutagenesis was then carried out using a 2-second UV exposure to provide about 20% killing. Cells were plated at approximately 10^4 cells/plate onto eight YEPD plates that were supplemented with 100 mg/L each of uracil, adenine, and leucine, which were added to supplement the growth of potential auxotrophs having the cognate deficiencies. Following UV exposure the plates were wrapped in foil and incubated overnight at 30° C. The following day the colonies on the plates (~10^5 total) were resuspended in water and washed once with water. An amount of cell suspension sufficient to give an OD600 of 0.1-0.2 was used to inoculate 500 ml of minimal broth made with yeast nitrogen base without amino acids or ammonia, supplemented with 1% glucose and 400 μg/L biotin. The culture was placed in a 2.8 L baffled Bell flask and shaken vigorously overnight at 30° C. The following day the cells had reached an OD600 of ~1.0-2.0. The cells were pelleted and resuspended in 500 ml of minimal broth supplemented with 5 g/L ammonium sulfate. The cell suspension was placed in a 2.8 L baffled Bell flask and shaken vigorously at 30° C. for 6 hours. […] The cultures were incubated with shaking for an additional hour. The control and nystatin-treated cells were then harvested by centrifugation and washed with water three times. […]
compound,measurement,value
C[C@@H]1[C@H](O)[C@@H](C)/C=C/C=C/CC/C=C/C=C/C=C/C=C/C(O[C@H]2O[C@H](C)[C@@H](O)[C@H](N)[C@@H]2O)CC2O[C@](O)(CC(O)C(O)CCC(O)CC(O)CC(O)CC(=O)O[C@H]1C)CC(O)C2C(=O)O (stereo partly shown) [nystatin],"decrease in the number of viable cells (colony forming units), factor",10^4
